“Also recorded” adds a separate entry of the source. Read-outs that look alike come from different tables or passages of the source.
Experiments:
[1] = test system: ER-mitochondria Ca^2+ transfer; assay: Oxidative stress (H2O2 / MSC)-induced mitochondrial Ca2+ levels in cerebral cortical neurons; format: cell-based, mouse
Description: At this time, to measure mitochondrial Ca^2+ levels at specific time points during incubation of neurons with H2O2, Rhod2/AM, which is a mitochondria-specific chemical Ca^2+ indicator, was used instead of Mito-GCaMP6 capable of causing variations due to different expression levels of Mito-GCaMP6 at multiple time points.

[2] = test system: ER-mitochondria Ca^2+ transfer; assay: Corticosterone-induced mitochondrial Ca2+ levels in cerebral cortical neurons; format: cell-based, mouse; conditions: for corticosterone-induced increase in mitochondrial Ca2+ levels: preincubation with the agent
Description: (§1) To verify the hypothesis, changes in ROS and mitochondrial Ca^2+ levels in cerebral cortical neurons were assessed after treatment with corticosterone (CORT), which is a glucocorticoid stress hormone.

[3] = test system: cerebral cortical neurons; assay: Corticosterone-induced ROS generation in cerebral cortical neurons; format: cell-based, mouse
Description: as §1

[4] = test system: cerebral cortical neurons; assay: ER Ca2+ storage capacity / IP3 generation after corticosterone; format: cell-based, mouse; conditions: corticosterone for 1 hour
Description: To verify the hypothesis, changes in ROS and mitochondrial Ca^2+ levels in cerebral cortical neurons were assessed after treatment with corticosterone (CORT), which is a glucocorticoid stress hormone. […] To determine whether this glucocorticoid-dependent increase in mitochondrial Ca^2+ levels relies on the induction of oxidative stress, apocynin (APO), which is an antioxidant and a ROS scavenger, was used. […] In contrast, it was confirmed that, when neurons were treated with corticosterone for 1 hour, the capacity of the ER for Ca^2+ storage or IP3 generation was not changed.

IP3R1 [5] = assay: Competitive IP3 binding assay; conditions: proteins immunoprecipitated from HEK293FT cells; 3 nM [3H]-IP3, 4° C., 1 hour
Description: Transfected HEK293FT cells were lysed in a NP40 buffer, and then the proteins were immunoprecipitated with antibodies. The immunoprecipitated proteins were incubated with 3 nM [^3H]-IP3 at 4° C. for 1 hour and the concentration of cold IP3 was increased in a Ca^2+-free CLM buffer. Meanwhile, brains were isolated from adult WT or DISC1 LI mice and lysed in a NP40 buffer by sonication, and then endogenous IP3R1 and the DISC1 protein were immunoprecipitated with specific antibodies, and then incubated with [^3H]-IP3 in the same manner as described above, and the concentration of cold IP3 was increased. Thereafter, the resulting mixture was filtered with a GF/B filter and washed three times with a CLM buffer, and then the filter was dried, and radioactivity was measured using a scintillation counter.
In IP3R1, the ligand-binding and modulatory domains are critical regions for ligand binding of IP3Rs, and thus the inventors of the present disclosure examined the influence of DISC1 on binding between IP3R1 and its ligand, i.e., IP3. For this, competitive IP3 binding analysis was performed using IP3R1, DISC1, or DISC1^Δ1-201, which was isolated from HEK293FT cells by immunoprecipitation with antibodies according to the methods of Examples 1 to 3.

IP3R1 [6] = assay: Immunoprecipitation analysis of interaction between DISC1 and IP3R1; format: binding
Text: IP3R1 is known to be predominantly expressed in the brain and abundant in the MAM. Therefore, the MAM localization of DISC1 was confirmed through Example 2, and to examine the interaction between DISC1 and IP3R1, the inventors of the present disclosure performed immunoprecipitation analysis on the two proteins. […] In addition, as illustrated in the immunoblotting results of FIG. 2C, it was confirmed that the endogenous DISC1 protein and the IP3R1 protein were expressed together in whole lysates and the crude MAM fraction ((MAM+Mito), which was derived from the brains of adult mice.

[7] = test system: ER-mitochondria Ca^2+ transfer; assay: IP3-induced mitochondrial Ca2+ imaging (Mito-GCaMP6) in permeabilized cerebral cortical neurons; format: cell-based, mouse
Description: Neurons (DIV7-8) transfected with Mito-GCaMP6 along with each construct were permeabilized with digitonin and Ca^2+-free ionomycin at 37° C. for 2 minutes in a modified EGTA- and Ca^2+-free buffer, and then was exposed to IP3. To measure the effect of RiBFM on mitochondrial Ca^2+ responses, neurons were transfected with Mito GCaMP6, AKAP1-FKBP12, and FRB-SAC1 together with pFlag-cmv2 or Flag-DISC1 on DIV5-6, and neurons pre-incubated with rapamycin for 5 minutes were exposed to IP3 in the same manner as described above.
By considering the functional association between IP3R1 and DISC1 at the MAM, which was verified in the above example, the inventors of the present disclosure examined whether or not DISC1 was involved in regulating ER-mitochondria Ca^2+ transfer. For this, expression constructs for GCaMP6, which is a genetically encoded Ca^2+ indicator, were modified by combining the target sequences for mitochondria or the ER. Subsequently, it was confirmed that the organelle-specific GCaMP6 constructs were expressed in cerebral cortical neurons. In the case of ER Ca^2+ measurement, the results were verified using ER-GCaMP3, which has a relatively low affinity for Ca^2+. […]

[8] = treatment with corticosterone for 1 hour

## NCCOB(c1ccccc1)c1ccccc1 [2-APB, 2-aminoethyl diphenylborinate]
[1]
  mitochondrial Ca2+ levels during incubation with H2O2: these results were not shown
[2]
  corticosterone-induced increase in mitochondrial Ca2+ levels: not observed

## COc1cc(C(C)=O)ccc1O [APO, apocynin]
[2]; DISC1 shRNA vs CTL shRNA neurons, corticosterone 1 hour
  corticosterone-induced mitochondrial Ca2+ levels: significantly reduced
[2]; corticosterone
  difference in mitochondrial Ca2+ accumulation between WT and DISC1 LI neurons: significantly reduced
[2]
  corticosterone-induced increase in mitochondrial Ca2+ levels: significantly reduced

## OO [H2O2, Hydrogen peroxide]
[1]; Rhod2/AM, specific time points
  mitochondrial Ca2+ levels during incubation with H2O2: increased proportional to the incubation time

## C[C@]12C[C@H](O)[C@H]3[C@@H](CCC4=CC(=O)CC[C@@]43C)[C@@H]1CC[C@@H]2C(=O)CO [corticosterone]
[2]; [8]
  mitochondrial Ca2+ levels: significant increases
[3]; [8]
  ROS levels: significant increases
[4]
  capacity of the ER for Ca2+ storage or IP3 generation: not changed

B1: DISC1: disrupted in schizophrenia 1 (DISC1) protein, amino acid sequence of SEQ ID NO: 1 or SEQ ID NO: 2 (protein, UniProt Q9NRI5 1-854, looked up)
Disrupted in schizophrenia 1 …: MPGGGPQGAPAAAGGGGVSHRAGSRDCLPPAACFRRRRLARRPGYMRSSTGPGIGFLSPAVGTLFRFPGGVSGEESHHSESRARQCGLDSRGLLVRSPVSKSAAAPTVTSVRGTSAHFGIQLRGGTRLPDRLSWPCGPGSAGWQQEFAAMDSSETLDASWEAACSDGARRVRAAGSLPSAELSSNSCSPGCGPEVPPTPPGSHSAFTSSFSFIRLSLGSAGERGEAEGCPPSREAESHCQSPQEMGAKAASLDGPHEDPRCLSRPFSLLATRVSADLAQAARNSSRPERDMHSLPDMDPGSSSSLDPSLAGCGGDGSSGSGDAHSWDTLLRKWEPVLRDCLLRNRRQMEVISLRLKLQKLQEDAVENDDYDKAETLQQRLEDLEQEKISLHFQLPSRQPALSSFLGHLAAQVQAALRRGATQQASGDDTHTPLRMEPRLLEPTAQDSLHVSITRRDWLLQEKQQLQKEIEALQARMFVLEAKDQQLRREIEEQEQQLQWQGCDLTPLVGQLSLGQLQEVSKALQDTLASAGQIPFHAEPPETIRSLQERIKSLNLSLKEITTKVCMSEKFCSTLRKKVNDIETQLPALLEAKMHAISGNHFWTAKDLTEEIRSLTSEREGLEGLLSKLLVLSSRNVKKLGSVKEDYNRLRREVEHQETAYETSVKENTMKYMETLKNKLCSCKCPLLGKVWEADLEACRLLIQSLQLQEARGSLSVEDERQMDDLEGAAPPIPPRLHSEDKRKTPLKVLEEWKTHLIPSLHCAGGEQKEESYILSAELGEKCEDIGKKLLYLEDQLHTAIHSHDEDLIQSLRRELQMVKETLQAMILQLQPAKEAGEREAAASCMTAGVHEAQA
IP3R1 [5]
  binding ability of unlabeled IP3 relative to [3H]IP3 bound to IP3R1: decreased
IP3R1 [6]; expression constructs for functional domains of IP3R1
  IP3R1 domains that DISC1 interacted with: a ligand-binding domain (LBD) and modulatory domains (MD1, MD2, and MD3)
IP3R1 [6]; immunoprecipitation
  interaction with IP3R1 (GFP-IP3R1): strong interaction
[7]; overexpression in permeabilized neurons, compared to control (Vector)
  IP3-induced increase in mitochondrial Ca2+ levels: significantly reduced the increase in mitochondrial Ca^2+ levels; also recorded: decreased
[1]; overexpression, 1 hour after H2O2 incubation, compared to control
  degree to which mitochondrial Ca2+ levels were increased: significantly reduced
[3]; DISC1 knockdown or overexpression in neurons
  corticosterone-induced ROS generation: reduced ROS levels

B2: hDISC1: human DISC1 resistant to shRNA (protein, UniProt Q9NRI5 1-854, looked up)
Disrupted in schizophrenia 1 …: B1 Disrupted in schizophrenia 1 …
modifications: shRNA-resistant silent changes
notes: human DISC1 resistant to shRNA
[7]; DISC1 expression inhibited, compared to control neurons (CTL shRNA)
  IP3-dependent increase in mitochondrial Ca2+: restored similarly to the control

From patent publication US20190167761A1, “PHARMACEUTICAL COMPOSITION FOR PREVENTING OR TREATING STRESS-RELATED DISEASE, INCLUDING DISC1 PROTEIN OR GENE ENCODING THE SAME” (POSTECH ACADEMY-INDUSTRY FOUNDATION, priority 2017, published 2019)
